The values that follow come from patent US11396531B2, “Antimicrobial peptides comprising epsilon lysine residues” (priority 2016, dated 2022).

One test deals with S. aureus or MRSA. The test is classed as cell-based, Staphylococcus aureus. The note with it: Table 4, range over 5 strains. How it is done:
MIC of cationic polymers and polypeptide were tested in accordance with the Clinical and Laboratory Standards Institute (CLSI) guidelines against a panel of antibiotic-susceptible/-resistant bacteria, yeasts and fungal strains. Bacterial and yeast strains were cultured on tryptic soy agar (TSA) and Sabaroud dextrose agar (SDA) plates (Neogen Corporation, MI, USA) overnight respectively. Inocula in Mueller-Hinton broth (MHB) for bacteria and SD broth for C. albicans (Beckton Dickinson, MD, USA) were prepared at 0.5 McFarland. The suspensions were then diluted to a final concentration of 10^5 CFU/ml in a 96-well microtitre plate (SPL Life Sciences Co., Ltd, Korea). Polymers and polypeptides were added to the inoculum in 2-fold serial dilutions to give a range of concentrations from 2-1024 μg/ml. […] The antimicrobial activities were compared with topical antiseptic agents, BAK and CHX. A similar protocol was used to determine the MIC of εPL against antibiotic-resistant pathogens. MIC of the polymers and polypeptides against Fusarium strains was determined in full strength RPMI-1640 buffer. Fungal spores were recovered from a 5-day old culture on a potato dextrose agar and diluted to a concentration of 10^5 spores/ml in 0.9% saline solution. A further 50-fold dilution was done in RPMI-1640 buffer and 100 μl of the inoculum was added to 96 well plates containing an equal volume of test peptides at 2-fold serial dilutions. 200 μl of inoculum without any additives and buffer alone served as positive and negative controls, respectively. The plate was then incubated at 30° C. for 48 h. The absorbance value was measured at 600 nm as before and the lowest concentration of the peptide which inhibited 90% growth was reported. All MIC determinations were performed in duplicates.
MICs of polymers/antibiotics were determined using the microdilution method in 96 well microtitre plates (SPL Life Sciences Co., Ltd, Korea), following the guidelines of Clinical and Laboratory Standards Institute (CLSI) document M100-S18. Briefly, polymers (1-512 μg/ml) or antibiotics were dissolved in appropriate media (Mueller Hinton broth, MHB for bacteria; Sabaroud's Dextrose (SD) broth for yeasts and RPMI buffer for Fusarium strains) and 100 μl of this was then mixed with an equal volume of microbial inoculum (OD600=˜0.08) in the same media and shaken in a closed incubator.

The next test concerns A. baumannii. The test is described as follows: microbe, parasite or virus in culture. Particulars: A. baumannii (n = 10), Table 5. The procedure, abridged: (§1)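 CLSI broth microdilution (M100-S18) with polymers at 1–512 μg/ml mixed with an equal volume of inoculum prepared at 0.5 McFarland, final 10^5 CFU/ml. Bacteria were grown in Mueller-Hinton broth and yeasts in Sabouraud dextrose broth, shaken in a closed incubator. Growth was read at 600 nm; duplicate determinations.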

Test [1] deals with Carbapenam-resistant Enterobacter strains (CRE). The test is described as follows: microbe, parasite or virus in culture. Particulars: CRE (n = 19 strains), Table 5. The method, boiled down: as §1

Molecules are shown by their SMILES.

With `CC[C@H](C)[C@H](NC(=O)CN)C(=O)NCC(=O)N[C@@H](C)C(=O)N[C@H](C(=O)N[C@@H](CC(C)C)C(=O)N[C@@H](CCCCN)C(=O)N[C@H](C(=O)N[C@@H](CC(C)C)C(=O)N[C@H](C(=O)N[C@H](C(=O)NCC(=O)N[C@@H](CC(C)C)C(=O)N1CCC[C@H]1C(=O)N[C@@H](C)C(=O)N[C@@H](CC(C)C)C(=O)N[C@H](C(=O)N[C@@H](CO)C(=O)N[C@@H](Cc1c[nH]c2ccccc12)C(=O)N[C@H](C(=O)N[C@@H](CCCCN)C(=O)N[C@@H](CCCNC(=N)N)C(=O)N[C@@H](CCCCN)C(=O)N[C@@H](CCCNC(=N)N)C(=O)N[C@@H](CCC(N)=O)C(=O)N[C@@H](CCC(N)=O)C(N)=O)[C@@H](C)CC)[C@@H](C)CC)[C@@H](C)O)[C@@H](C)O)C(C)C)C(C)C` [Melittin], the “MIC against S. aureus or MRSA (n = 5)” value with S. aureus or MRSA lay within 4 to 8 µg/mL. Besides, in the test with A. baumannii (90% of strains susceptible), the MIC90 entry is “(MIC90 = 4)^2 μg/ml”. Further, the MIC against A. baumannii (range) lay in the range of 2 to 4 µg/mL; in test [1] (range), 8 to 32 µg/mL. Also, the MIC50 entry in test [1] (50% of strains susceptible) is recorded as “(MIC50 = 8)^2 μg/ml”.
